Tests used:
Format in all cases: in vivo
[1] = system: Italian ryegrass (Lolium multiflorum); assay: Test A preemergence, visual injury rating; conditions: 0 to 100 scale (0 no effect, 100 complete control)
How it was run: (§1)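 Visual injury scored 0–100 (100 = complete control) against untreated controls about 10 days after treatment in a greenhouse. Test chemicals, formulated with surfactant in non-phytotoxic solvent, were sprayed on soil preemergence or on 2-10 cm, one- to two-leaf plants postemergence.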

[2] = system: barnyardgrass (Echinochloa crus-galli); assay: Test A preemergence, visual injury rating; conditions: 0 to 100 scale (0 no effect, 100 complete control)
How it was run: as §1

[3] = system: giant foxtail (Setaria faberii); assay: Test A preemergence, visual injury rating; conditions: 0 to 100 scale (0 no effect, 100 complete control)
How it was run: as §1

[4] = system: kochia (Kochia scoparia); assay: Test A preemergence, visual injury rating; conditions: 0 to 100 scale (0 no effect, 100 complete control)
How it was run: as §1

[5] = system: pigweed (Amaranthus retroflexus); assay: Test A preemergence, visual injury rating; conditions: 0 to 100 scale (0 no effect, 100 complete control)
How it was run: as §1

[6] = system: ragweed (common ragweed, Ambrosia elatior); assay: Test A preemergence, visual injury rating; conditions: 0 to 100 scale (0 no effect, 100 complete control)
How it was run: as §1

[7] = system: chickweed (common chickweed, Stellaria media); assay: Test C postemergence, plant response rating; conditions: for Plant response rating, Chickweed: scale 0 to 100; for Chickweed plant response rating: scale 0 to 100 (0 no effect, 100 complete control)
How it was run: (§2)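 Both timings shared one formulation, a non-phytotoxic solvent mixture with surfactant, and a greenhouse period of 13 to 15 d. Preemergence used seeded loam/sand or silt loam soil, postemergence used 2 to 18 cm plants; visual ratings ran from 0 (no effect) to 100 (complete control).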

[8] = system: corn (Zea mays); assay: Test C postemergence, plant response rating; conditions: for Plant response rating, Corn: scale 0 to 100; for Corn plant response rating: scale 0 to 100 (0 no effect, 100 complete control)
How it was run: as §2

[9] = system: crabgrass, large (large crabgrass, Digitaria sanguinalis); assay: Test C postemergence, plant response rating; conditions: for Plant response rating, Crabgrass, Large: scale 0 to 100; for Crabgrass, Large plant response rating: scale 0 to 100 (0 no effect, 100 complete control)
How it was run: as §2

[10] = system: galium (catchweed bedstraw, Galium aparine); assay: Test C postemergence, plant response rating; conditions: for Plant response rating, Galium: scale 0 to 100; for Galium plant response rating: scale 0 to 100 (0 no effect, 100 complete control)
How it was run: as §2

[11] = system: kochia (Kochia scoparia); assay: Test C postemergence, plant response rating; conditions: for Plant response rating, Kochia: scale 0 to 100; for Kochia plant response rating: scale 0 to 100 (0 no effect, 100 complete control)
How it was run: as §2

[12] = system: lambsquarters (Chenopodium album); assay: Test C postemergence, plant response rating; conditions: for Plant response rating, Lambsquarters: scale 0 to 100; for Lambsquarters plant response rating: scale 0 to 100 (0 no effect, 100 complete control)
How it was run: as §2

[13] = system: nutsedge, yellow (yellow nutsedge, Cyperus esculentus); assay: Test C postemergence, plant response rating; conditions: for Plant response rating, Nutsedge, Yellow: scale 0 to 100; for Nutsedge, Yellow plant response rating: scale 0 to 100 (0 no effect, 100 complete control)
How it was run: as §2

[14] = system: oat, wild (wild oat Avena fatua); assay: Test C postemergence, plant response rating; conditions: for Plant response rating, Oat, Wild: scale 0 to 100; for Oat, Wild plant response rating: scale 0 to 100 (0 no effect, 100 complete control)
How it was run: as §2

[15] = system: ragweed (common ragweed, Ambrosia elatior); assay: Test C postemergence, plant response rating; conditions: for Plant response rating, Ragweed: scale 0 to 100; for Ragweed plant response rating: scale 0 to 100 (0 no effect, 100 complete control)
How it was run: as §2

[16] = system: ryegrass, Italian (Italian ryegrass, Lolium multiflorum); assay: Test C postemergence, plant response rating; conditions: for Plant response rating, Ryegrass, Italian: scale 0 to 100; for Ryegrass, Italian plant response rating: scale 0 to 100 (0 no effect, 100 complete control)
How it was run: as §2

[17] = system: soybean (Glycine max); assay: Test C postemergence, plant response rating; conditions: for Plant response rating, Soybean: scale 0 to 100; for Soybean plant response rating: scale 0 to 100 (0 no effect, 100 complete control)
How it was run: as §2

[18] = system: waterhemp (common waterhemp, Amaranthus rudis); assay: Test C postemergence, plant response rating; conditions: for Plant response rating, Waterhemp: scale 0 to 100; for Waterhemp plant response rating: scale 0 to 100 (0 no effect, 100 complete control)
How it was run: as §2

For `N#Cc1cccc(Oc2ncc(Cl)cn2)c1CCCC(F)(F)F` [Compound 72], which “Ryegrass, Italian plant response rating” value ([1]; 125 g ai/ha) is on record?
The value was 10.

What about the “Ryegrass, Italian plant response rating” value ([1]; 500 g ai/ha) of the same compound?
The value was 30.

What about the “Barnyardgrass plant response rating” value ([2]; 125 g ai/ha) of the same compound?
The value was 90.

And the “Barnyardgrass plant response rating” value ([2]; 500 g ai/ha)?
Its value is 100.

And the “Foxtail, Giant plant response rating” value ([3]; 125 g ai/ha)?
The value was 90.

And the “Foxtail, Giant plant response rating” value ([3]; 500 g ai/ha)?
Its value is 100.

And the “Kochia plant response rating” value ([4]; 125 g ai/ha)?
The value was 90.

What about the “Kochia plant response rating” value ([4]; 500 g ai/ha) of the same compound?
The value was 100.

What about the “Pigweed plant response rating” value ([5]; 125 g ai/ha) of the same compound?
The value was 100.

And the “Pigweed plant response rating” value ([5]; 500 g ai/ha)?
The value was 100.

What about the “Ragweed plant response rating” value ([6]; 125 g ai/ha) of the same compound?
The value was 0.

And the “Ragweed plant response rating” value ([6]; 500 g ai/ha)?
The value was 10.

And the “Plant response rating, Chickweed” value ([7]; 16 g ai/ha)?
The value was 65.

What about the “Plant response rating, Chickweed” value ([7]; 31 g ai/ha) of the same compound?
Its value is 85.

What about the “Chickweed plant response rating” value ([7]; 62 g ai/ha) of the same compound?
Its value is 90.

And the “Chickweed plant response rating” value ([7]; 125 g ai/ha)?
The value was 98.

And the “Plant response rating, Corn” value ([8]; 16 g ai/ha)?
Its value is 10.

And the “Plant response rating, Corn” value ([8]; 31 g ai/ha)?
Its value is 15.

And the “Corn plant response rating” value ([8]; 62 g ai/ha)?
Its value is 10.

And the “Corn plant response rating” value ([8]; 125 g ai/ha)?
The value was 20.

What about the “Plant response rating, Crabgrass, Large” value ([9]; 16 g ai/ha) of the same compound?
The value was 10.

And the “Plant response rating, Crabgrass, Large” value ([9]; 31 g ai/ha)?
The value was 10.

And the “Crabgrass, Large plant response rating” value ([9]; 62 g ai/ha)?
Its value is 10.

What about the “Crabgrass, Large plant response rating” value ([9]; 125 g ai/ha) of the same compound?
The value was 50.

And the “Plant response rating, Galium” value ([10]; 16 g ai/ha)?
The value was 80.

What about the “Plant response rating, Galium” value ([10]; 31 g ai/ha) of the same compound?
The value was 80.

And the “Galium plant response rating” value ([10]; 62 g ai/ha)?
Its value is 5.

And the “Galium plant response rating” value ([10]; 125 g ai/ha)?
The value was 98.

And the “Plant response rating, Kochia” value ([11]; 16 g ai/ha)?
Its value is 100.

What about the “Plant response rating, Kochia” value ([11]; 31 g ai/ha) of the same compound?
The value was 100.

And the “Kochia plant response rating” value ([11]; 62 g ai/ha)?
Its value is 100.

And the “Kochia plant response rating” value ([11]; 125 g ai/ha)?
Its value is 100.

And the “Plant response rating, Lambsquarters” value ([12]; 16 g ai/ha)?
The value was 75.

And the “Plant response rating, Lambsquarters” value ([12]; 31 g ai/ha)?
The value was 85.

What about the “Lambsquarters plant response rating” value ([12]; 62 g ai/ha) of the same compound?
Its value is 75.

And the “Lambsquarters plant response rating” value ([12]; 125 g ai/ha)?
Its value is 85.

What about the “Plant response rating, Nutsedge, Yellow” value ([13]; 16 g ai/ha) of the same compound?
Its value is 5.

What about the “Plant response rating, Nutsedge, Yellow” value ([13]; 31 g ai/ha) of the same compound?
The value was 10.

What about the “Nutsedge, Yellow plant response rating” value ([13]; 62 g ai/ha) of the same compound?
The value was 10.

And the “Nutsedge, Yellow plant response rating” value ([13]; 125 g ai/ha)?
The value was 15.

And the “Plant response rating, Oat, Wild” value ([14]; 16 g ai/ha)?
Its value is 5.

And the “Plant response rating, Oat, Wild” value ([14]; 31 g ai/ha)?
Its value is 5.

And the “Oat, Wild plant response rating” value ([14]; 62 g ai/ha)?
The value was 5.

What about the “Oat, Wild plant response rating” value ([14]; 125 g ai/ha) of the same compound?
The value was 10.

What about the “Plant response rating, Ragweed” value ([15]; 16 g ai/ha) of the same compound?
The value was 35.

What about the “Plant response rating, Ragweed” value ([15]; 31 g ai/ha) of the same compound?
Its value is 50.

What about the “Ragweed plant response rating” value ([15]; 62 g ai/ha) of the same compound?
Its value is 40.

What about the “Ragweed plant response rating” value ([15]; 125 g ai/ha) of the same compound?
Its value is 75.

And the “Plant response rating, Ryegrass, Italian” value ([16]; 16 g ai/ha)?
Its value is 5.

What about the “Plant response rating, Ryegrass, Italian” value ([16]; 31 g ai/ha) of the same compound?
The value was 5.

What about the “Ryegrass, Italian plant response rating” value ([16]; 62 g ai/ha) of the same compound?
Its value is 10.

What about the “Ryegrass, Italian plant response rating” value ([16]; 125 g ai/ha) of the same compound?
The value was 15.

What about the “Plant response rating, Soybean” value ([17]; 16 g ai/ha) of the same compound?
The value was 60.

And the “Plant response rating, Soybean” value ([17]; 31 g ai/ha)?
The value was 70.

What about the “Soybean plant response rating” value ([17]; 62 g ai/ha) of the same compound?
Its value is 40.

And the “Soybean plant response rating” value ([17]; 125 g ai/ha)?
The value was 70.

What about the “Plant response rating, Waterhemp” value ([18]; 16 g ai/ha) of the same compound?
The value was 85.

And the “Plant response rating, Waterhemp” value ([18]; 31 g ai/ha)?
The value was 80.

And the “Waterhemp plant response rating” value ([18]; 62 g ai/ha)?
The value was 90.

What about the “Waterhemp plant response rating” value ([18]; 125 g ai/ha) of the same compound?
Its value is 90.

Source: patent publication US11053204B2, “Pyrimidinyloxy benzene derivatives as herbicides” (FMC Corporation, priority 2015, dated 2021)
